How the values were obtained:
[1] = Molar enthalpy of transition or fusion; details: Crystal; DSC
[2] = Crystal; DTA
[3] = molar heat capacity at constant pressure; details: 101.33 kPa, Crystal

ON=Cc1ccccn1 [2-pyridinealdoxime]
Details	Molar enthalpy of transition or fusion [kcal/mol]	Normal melting temperature [°C]
[1]	4.78	–
[2]	–	113.08

[3]
Details	molar heat capacity at constant pressure [J/K/mol]
80.46 K	51.68
84.39 K	53.78
87.27 K	55.38
90.22 K	57.07
93.26 K	58.78
96.22 K	60.42
99.1 K	61.8
102.07 K	63.16
105.13 K	64.65
108.12 K	65.95
111.05 K	67.4
113.93 K	68.69
116.9 K	69.94
119.96 K	71.33
122.97 K	72.93
125.94 K	74.14
128.85 K	75.41
131.74 K	76.56
134.71 K	77.89
137.77 K	79.05
140.8 K	80.49
143.79 K	81.65
146.74 K	82.72
149.66 K	83.99
152.56 K	85.27
155.54 K	86.71
158.61 K	87.83
161.66 K	88.91
164.67 K	90.3
167.66 K	91.7
170.63 K	92.91
173.58 K	93.88
176.5 K	95.23
179.4 K	96.67
182.38 K	97.92
185.45 K	99.23
188.5 K	100.67
191.52 K	101.97
194.53 K	103.16
197.5 K	104.64
200.47 K	106.06
203.41 K	107
206.33 K	108.59
209.23 K	109.82
212.22 K	111.35
215.29 K	112.9
218.35 K	113.97
221.38 K	115.37
224.38 K	117.31
